System: INFB
Test: Immunogenicity: expression of intracellular inflammatory factor INFB by qPCR in Hela cells
Type: cell-based
Conditions: 2 ug mRNA/well, 24 hours after transfection, relative to ^m7GpppApG cap, mean±SD
Description: In this example, Hela cells (ATCC CCL-2) were transfected with luciferase mRNAs (Gaussia luciferase) comprising various initial cap structures (the initial cap nucleotide structures comprised are: ^m7GpppApG, ^m7GpppA2′Ome pG, ^m7G3′OmepppA2′O-ethylpG, ^m7G2′OmepppA2′O-ethylpG, ^m7G3′OmeppA2′O-MOEpG, ^m7G2′OmepppA2′O-MOEpG, ^m7Gppp(N6-methyladenine)2′O-MOEpG, ^m7G2′OmepppC2′O-ethylpC, ^m7G3′OmepppA2′O-MOEpU), and collected after 24 hours. The expression of intracellular inflammatory factors was detected, and the relative abundance of the factors is in proportional to the immunogenicity of the mRNA.
(§1) Hela cells were seeded at a density of 4×10^5/well in 6-well plates, and transfection was carried out when the cell density reached approximately 80%. Each well was transfected with 2 ug mRNA, and the transfection reagent was Lipofectamine MessengerMAX Transfection Reagent (Invitrogen), and the transfection steps were carried out according to the instructions. Twenty-four hours after transfection, the cells were collected and TRIzol was used to extract RNAs which were then reverse transcribed into cDNAs. The expression of intracellular inflammatory factors was detected using real-time quantitative fluorescent PCR with B-actin as the internal reference. The detection of each gene was repeated 3 times, and the result of the expression of each gene is expressed as the relative value to the result of ^m7GpppApG cap.
as §1, with “The expression of intracellular inflammatory factors was detected, and the relative abundant of the factors is in proportional to the immunogenicity of the mRNA. Hela” for “Hela”, “β-actin” for “B-actin”

[1] = Example 3 (IVT at 50° C.), β-actin reference

| Substance | Expression of INFB (Example 2, B-actin reference) | Expression of INFB [1] |
| --- | --- | --- |
| ^m7G2′OmepppA2′O-MOEpG | 0.24 ± 0.03 |  |
| ^m7G2′OmepppA2′O-ethylpG | 0.42 ± 0.02 |  |
| ^m7G2′OmepppC2′O-ethylpC | 0.78 ± 0.01 |  |
| ^m7G3′OmepppA2′O-MOEpG | 0.41 ± 0.01 |  |
| ^m7G3′OmepppA2′O-MOEpU | 1.18 ± 0.08 |  |
| ^m7G3′OmepppA2′O-ethylpG | 0.47 ± 0.01 |  |
| ^m7GAlpha-L-LNApppA2′O-ethyl pG |  | 0.11 ± 0.03 |
| ^m7GBeta-D-LNApppA2′O-MOEpG |  | 0.09 ± 0.02 |
| ^m7Gppp(N6-methyladenine)2′O-MOEpG | 0.46 ± 0.02 |  |
| ^m7GpppA2′Ome pG [reference compound] | 0.61 ± 0.01 | 0.63 ± 0.04 |
| ^m7GpppApG [reference compound] | 1 ± 0.08 | 1 ± 0.13 |
